Consider eleven compounds from BindingDB's records for doi:10.1016/S1074-5521(00)00052-1 (Northwestern University, 2001).

This test deals with Beta-lactamase (Escherichia coli (strain K12), UniProt P00811). Briefly: Enzyme Inhibition Assay. The conditions noted are these: pH 7. From the text: Enzyme inhibition assay using AmpC or TEM-1 from escherichia coli.
Chain of Beta-lactamase (P00811 whole entry): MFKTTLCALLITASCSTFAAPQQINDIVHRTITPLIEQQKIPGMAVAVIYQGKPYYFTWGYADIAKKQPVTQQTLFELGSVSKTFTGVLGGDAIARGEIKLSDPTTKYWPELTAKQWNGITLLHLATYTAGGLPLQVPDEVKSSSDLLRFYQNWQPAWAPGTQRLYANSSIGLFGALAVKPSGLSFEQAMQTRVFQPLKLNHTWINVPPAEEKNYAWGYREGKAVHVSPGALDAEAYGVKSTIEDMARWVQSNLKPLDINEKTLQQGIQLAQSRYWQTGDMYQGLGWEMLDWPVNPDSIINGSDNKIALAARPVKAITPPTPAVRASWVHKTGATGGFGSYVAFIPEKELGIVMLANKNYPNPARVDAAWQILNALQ
Compound `O=CNCB(O)O` [Acylglycineboronic acid, 3] displayed a Ki of 4.8 µM.

With `CC(=O)NCB(O)O` [Acylglycineboronic acid, 5], the inhibition constant Ki worked out at 18.5 µM.

Consider `O=C(Cc1ccccc1)NCB(O)O` [Acylglycineboronic acid, 6], for which the Ki amounted to 0.57 µM.

Take `O=C(COc1ccccc1)NCB(O)O` [Acylglycineboronic acid, 7]: affinity was put at a Ki of 0.7 µM.

The compound `CC(Oc1ccccc1)C(=O)NCB(O)O` (stereo unspecified) [Acylglycineboronic acid, 8] showed a Ki of 0.3 µM.

On to `CCOc1ccc2ccccc2c1C(=O)NCB(O)O` [Acylglycineboronic acid, 10], for which the affinity corresponds to a Ki of 0.033 µM.

`O=C(CCl)NCB(O)O` [Acylglycineboronic acid, 12] displayed a Ki of 0.24 µM. This Ki lies about 7.3-fold higher than the previous one.

Take `O=C(CSc1ccncc1)NCB(O)O` [Acylglycineboronic acid, 13]: the affinity, expressed as Ki, was 0.175 µM.

`OB(O)O` [Boric acid] showed a Ki of 2800 µM.

`CB(O)O` [Methylboronic Acid] showed a Ki of 1000 µM.

The compound `O=C(Cc1cccs1)NCB(O)O` [N-2-THIOPHEN-2-YL-ACETAMIDE BORONIC ACID] came in with a Ki of 0.32 µM.

Broadly, the Ki is the equilibrium dissociation constant of an inhibitor or competing ligand from its target.
